Drawing on PubChem BioAssay (NCI), this text covers GI50 and TGI for seven compounds.

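Following 48 hours of exposure in 96-well plates, responses at five concentrations were used to interpolate endpoints linearly. GI50: concentration for 50% inhibition of growth. Definition used: TGI = concentration required for complete inhibition of growth.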

Among the test systems are NCI/ADR-RES ovarian; K-562 leukemia; SK-MEL-5 melanoma; OVCAR-8 ovarian; DU-145 prostate; KM12 colon; SR leukemia; HOP-92 NSCLC; OVCAR-3 ovarian; HOP-62 NSCLC.
What all share (experiment): NCI tumour cell line growth inhibition, 48 h

`COc1cc(CSc2nc3ccc(Cl)cc3c(=O)n2Cc2ccccc2)cc(OC)c1OC`: the GI50 with NCI/ADR-RES ovarian was 2.77 µM; with K-562 leukemia, 1.19 µM; in the experiment on SK-MEL-5 melanoma it was 2.41 µM; in the experiment on OVCAR-8 ovarian, 5.18 µM; with DU-145 prostate, 4.46 µM; with KM12 colon, 2.9 µM. Further, the GI50 with SR leukemia is 0.59 µM; in the experiment with HOP-92 NSCLC, 1.93 µM; with OVCAR-3 ovarian, 3.2 µM; in the experiment with HOP-62 NSCLC, 2.88 µM. The TGI is greater than 100 µM in the experiment with NCI/ADR-RES ovarian; greater than 100 µM in the experiment on K-562 leukemia; 17.1 µM in the experiment on SK-MEL-5 melanoma; greater than 100 µM in the experiment with OVCAR-8 ovarian; greater than 100 µM with DU-145 prostate; greater than 100 µM with KM12 colon. Besides, the TGI in the experiment on SR leukemia was 27.6 µM; in the experiment on HOP-92 NSCLC, 9.16 µM; in the experiment on OVCAR-3 ovarian, 11.6 µM; in the experiment on HOP-62 NSCLC it was 18.2 µM.
Take `c1cc(OCCN2CCCC2)ccc1CNc1ccc2nc(CCC3CCCCC3)[nH]c2c1`: the GI50 in the experiment on NCI/ADR-RES ovarian is 2.76 µM; in the experiment with K-562 leukemia, 0.414 µM; in the experiment on SK-MEL-5 melanoma, 1.68 µM; in the experiment on OVCAR-8 ovarian, 2.69 µM; in the experiment with DU-145 prostate it was 3.43 µM; with KM12 colon, 2.7 µM. The GI50 with SR leukemia is 0.29 µM; in the experiment on HOP-92 NSCLC, 0.471 µM; in the experiment with OVCAR-3 ovarian, 1.67 µM; in the experiment with HOP-62 NSCLC, 1.71 µM. Moreover, the TGI was found to be 10.7 µM in the experiment with NCI/ADR-RES ovarian; 2.11 µM with K-562 leukemia; 3.1 µM in the experiment on SK-MEL-5 melanoma; 10 µM in the experiment with OVCAR-8 ovarian; 12.4 µM with DU-145 prostate; 8.46 µM with KM12 colon. The TGI was 1.03 µM with SR leukemia, 2.25 µM in the experiment on HOP-92 NSCLC, 3.52 µM in the experiment on OVCAR-3 ovarian and 3.62 µM in the experiment on HOP-62 NSCLC.
Regarding `COc1cc2c(cc1OC)[C@@H]1C(=O)c3ccc4c(c3O[C@@H]1CO2)C[C@H](C(C)C)O4`, the GI50 was 0.248 µM in the experiment with NCI/ADR-RES ovarian; 0.521 µM in the experiment with K-562 leukemia; 0.0375 µM in the experiment with SK-MEL-5 melanoma; 3.96 µM in the experiment on OVCAR-8 ovarian; 14.5 µM in the experiment with DU-145 prostate; 5.31 µM in the experiment on KM12 colon. Also, the GI50 in the experiment with SR leukemia was 1.42 µM; in the experiment with HOP-92 NSCLC, 2.04 µM; in the experiment with OVCAR-3 ovarian it was 7.81 µM; with HOP-62 NSCLC it was 9.23 µM. For the same compound, the TGI in the experiment with NCI/ADR-RES ovarian was greater than 29.1 µM; in the experiment on K-562 leukemia, greater than 41.4 µM; in the experiment with SK-MEL-5 melanoma, 12.9 µM; in the experiment with OVCAR-8 ovarian it was greater than 69.9 µM; in the experiment on DU-145 prostate, greater than 100 µM; in the experiment with KM12 colon, 26.1 µM. Besides, the TGI in the experiment with SR leukemia was greater than 23.6 µM; in the experiment with HOP-92 NSCLC it was 22.3 µM; in the experiment on OVCAR-3 ovarian it was greater than 41.1 µM; with HOP-62 NSCLC, greater than 60.6 µM.
For the compound `COc1ccc(Nc2ncc(I)c(NCCCNC(=O)C3CCC3)n2)cc1`, the GI50 in the experiment with NCI/ADR-RES ovarian was 12 µM; with K-562 leukemia, 8.99 µM; in the experiment with SK-MEL-5 melanoma, 10.1 µM; in the experiment on OVCAR-8 ovarian, 8.6 µM; in the experiment on DU-145 prostate, 9.21 µM; in the experiment on KM12 colon it was 3.42 µM. For the same compound, the GI50 in the experiment on SR leukemia is 4.91 µM; in the experiment with HOP-92 NSCLC it was 3.04 µM; in the experiment on OVCAR-3 ovarian, 7.83 µM; in the experiment with HOP-62 NSCLC, 1.64 µM. Moreover, the TGI was greater than 100 µM in the experiment with NCI/ADR-RES ovarian; greater than 100 µM with K-562 leukemia; 28.7 µM in the experiment on SK-MEL-5 melanoma; greater than 100 µM in the experiment with OVCAR-8 ovarian; greater than 100 µM in the experiment with DU-145 prostate; greater than 100 µM in the experiment with KM12 colon. Moreover, the TGI was greater than 100 µM in the experiment on SR leukemia, 29.2 µM in the experiment on HOP-92 NSCLC, 33.8 µM in the experiment with OVCAR-3 ovarian and 21.8 µM in the experiment with HOP-62 NSCLC.
For `CC1(C)C(=O)/C=C\C(=O)C(C)(C)C2=CC=C(O2)C(C)(C)C(=O)C(Br)C(Br)C(=O)C(C)(C)C2=CC=C1O2` (stereo not given), the TGI is 90.2 µM in the experiment on NCI/ADR-RES ovarian; 45.4 µM with K-562 leukemia; greater than 100 µM with SK-MEL-5 melanoma; 40.1 µM in the experiment with OVCAR-8 ovarian; greater than 100 µM in the experiment on DU-145 prostate; greater than 100 µM in the experiment on KM12 colon. In addition, the TGI in the experiment with SR leukemia is 5.62 µM; in the experiment on HOP-92 NSCLC, greater than 100 µM; with OVCAR-3 ovarian, 68.9 µM; in the experiment with HOP-62 NSCLC, greater than 100 µM.
Turning to `CCCCCSc1ccc2nc(NC(=O)OCC)sc2c1`, the GI50 in the experiment on NCI/ADR-RES ovarian was 0.357 µM; in the experiment on K-562 leukemia it was 0.393 µM; in the experiment with SK-MEL-5 melanoma, 0.658 µM; in the experiment with OVCAR-8 ovarian it was 4.85 µM; with DU-145 prostate it was 1.72 µM; in the experiment with KM12 colon, 0.409 µM. The GI50 in the experiment with SR leukemia is 0.274 µM; with HOP-92 NSCLC, 1.44 µM; in the experiment with OVCAR-3 ovarian, 0.346 µM; in the experiment with HOP-62 NSCLC, 0.491 µM. For the same compound, the TGI in the experiment with NCI/ADR-RES ovarian was 3.82 µM; in the experiment with K-562 leukemia, greater than 100 µM; with SK-MEL-5 melanoma, greater than 100 µM; in the experiment with OVCAR-8 ovarian, greater than 100 µM; in the experiment with DU-145 prostate, greater than 100 µM; in the experiment on KM12 colon, greater than 100 µM. Also, the TGI in the experiment on SR leukemia was greater than 100 µM; in the experiment on HOP-92 NSCLC, 67.8 µM; in the experiment on OVCAR-3 ovarian, 2.14 µM; in the experiment with HOP-62 NSCLC, 31.1 µM.
`COc1cc(OC)c(C(=O)/C=C/c2ccc(C#N)cc2)c(OC)c1`: the GI50 in the experiment with NCI/ADR-RES ovarian is 1.4 µM; in the experiment with K-562 leukemia, 1.54 µM; in the experiment on SK-MEL-5 melanoma, 1.97 µM; in the experiment on OVCAR-8 ovarian it was 1.98 µM; with DU-145 prostate, 1.54 µM; in the experiment on KM12 colon, 1.58 µM. Further, the GI50 was 0.813 µM in the experiment with SR leukemia, 1.34 µM in the experiment with HOP-92 NSCLC, 1.77 µM with OVCAR-3 ovarian and 1.44 µM in the experiment on HOP-62 NSCLC. Further, the TGI is greater than 50 µM in the experiment with NCI/ADR-RES ovarian; greater than 50 µM in the experiment on K-562 leukemia; 6.95 µM in the experiment on SK-MEL-5 melanoma; greater than 50 µM in the experiment on OVCAR-8 ovarian; 6.27 µM in the experiment on DU-145 prostate; 6.55 µM in the experiment with KM12 colon. Besides, the TGI was greater than 50 µM with SR leukemia, 4.96 µM in the experiment on HOP-92 NSCLC, 7.93 µM with OVCAR-3 ovarian and 4.24 µM with HOP-62 NSCLC.
